Results on 4 compounds are retold here after patent publication US20050143420A1, “Methods and compositions for the treatment and management of hemoglobinopathy and anemia” (priority 2003, published 2005).

One data set concerns CD34+ progenitor cells. The data set can be described thus: Fetal hemoglobin induction in CD34+ cells with SCF and Epo, compared or combined with hydroxyurea and 5-azacytidine. It counts as cell-based. The conditions noted are these: for fetal hemoglobin expression: flow cytometry. The procedure:
FIG. 10 depicts the increase in expression of fetal hemoglobin due to 4-(Amino)-2-(2,6-dioxo(3-piperidyl))-isoindoline-1,3-dione over that induced by hydroxyurea or 5-azacytidine. Cells were cultured for six days in the presence of SCF (50 ng/ml) and Epo (2 U/ml), and either DMSO (control), 4-(Amino)-2-(2,6-dioxo(3-piperidyl))-isoindoline-1,3-dione (0.1, 1, 10 μM), 5-azacytidine (0.1, 1 μM; toxic at 10 μM) or hydroxyurea (0.1, 1, 10 μM).
As previously, CD34^+ progenitor cells were first expanded with a combination of growth factors (SCF, Flt3-L and IL-3) for 6 days, and erythroid differentiation was then induced with SCF and Epo for 6 days. During the erythroid differentiation period CD34^+ cells were cultured in the presence or absence of IMiDs™, alone or in combination with either hydroxyurea and 5-azacytidine, in order to compare the effect of IMiDs™ to these two known inducers of fetal hemoglobin synthesis. On day 6 of differentiation, the hemoglobin content of the cells was measured by flow cytometry. […] The induction of fetal hemoglobin production was, however, more pronounced with IMiD in comparison to hydroxyurea or 5-azacytidine, with a 10 fold induction in the presence of 10 μM of 4-(Amino)-2-(2,6-dioxo(3-piperidyl))-isoindoline-1,3-dione.

Data set [1] concerns BM-CD34+ cells. The data set can be described thus: CD34+ cell differentiation with SCF, Flt3-L, GM-CSF and TNFα; microarray gene expression. It counts as cell-based. The procedure: (§1) BM-CD34^+ cells were obtained from Cambrex (East Rutherford, N.J.) and cultured in Iscove's MDM with BIT 95000 (StemCell Technologies, UK) in the presence of stem cell factor (SCF), Flt3-L, granulocyte macrophage-colony stimulating factor (GM-CSF) and TNFα for 6 days. To study the effect of 4-(Amino)-2-(2,6-dioxo(3-piperidyl))-isoindoline-1,3-dione on the generation of dendritic cells, CD34^+ progenitor cells were cultured with or without 4-(Amino)-2-(2,6-dioxo(3-piperidyl))-isoindoline-1,3-dione for a period of 6 days. Phenotypic characterization of the cells for erythroid markers (CD36, CD71, glycophorin A and fetal hemoglobin) was established by flow cytometry after six days of culture. Gene expression was monitored by microarray analysis at day 1, day 3 and day 6 of CD34^+ differentiation (FIG. 1).
RNA purification and microarray analysis. Total RNA was isolated from CD34^+ cells using RNAeasy (Qiagen). Affymetrix U133A gene chips were used for gene expression analysis. Briefly, double-stranded cDNA was synthesized using 5 μg of total RNA. Biotin-labeled cRNA was synthesized using MessageAmp aRNA kit (Ambion), 15 μg of cRNA was fragmented and hybridized to each array. The above procedures were done twice for each RNA sample to obtain replicate biotin-labeled probes. The results from the replicate chips were averaged for calculation of the fold differences.

The test system of data set [2] is BM-CD34+ cells. The data set can be described thus: CD34+ cell differentiation with SCF, Flt3-L, GM-CSF and TNFα; flow cytometry of erythroid markers. The format is cell-based. The conditions noted are these: 0.01-100 μM, six days of culture. The procedure:
as §1

The subject of the next data set is BM-CD34+ progenitors. The experiment in a line: Erythroid differentiation of expanded CD34+ cells with SCF and Epo; flow cytometry and cell counts. The conditions noted are these: 6 days. The format is cell-based. The procedure:
Differentiation of bone marrow (BM) CD34^+ hematopoietic progenitor cells: BM-CD34^+ progenitors were obtained from Cambrex and cultured in Iscove's MDM with BIT 95000 (serum substitute; StemCell technologies) in the presence of growth factors. During the first 6 days CD34^+ cells were expanded with SCF (100 ng/ml), Flt3-L (100 ng/ml) and IL-3 (20 ng/ml), and then differentiated toward the erythroid lineage by culture in the presence of SCF (50 ng/ml), and Epo (2U or 4U/ml) for 6 days. To study the effect of IMiDs™, CD34^+ progenitors cells were differentiated for a period of 6 days in the presence or absence of 4-(Amino)-2-(2,6-dioxo(3-piperidyl))-isoindoline-1,3-dione or 3-(4-amino-1-oxo-1,3-dihydroisoindol-2-yl)-piperidine-2,6-dione. (FIG. 6)
Flow cytometry: Surface antigen expression was analyzed by flow cytometry (FACScan, Coulter) after 6 days of culture. Cells were processed for double staining (30 min at 4° C.) at day 6 using FITC and PE conjugated monoclonal antibodies (mAbs). Antibodies used were: CD34-PE, CD36-FITC, CD71-FITC and Glycophorin A-PE, all from BD Pharmingen (San Diego, Calif.). After 6 days of culture, cells were washed with phosphate-buffered saline (PBS), fixed with 2% paraformaldehyde, permeabilized with cytopermeafix (BD Pharmingen) and stained with HbF-PE (BD Pharmingen, San Diego, Calif.), Hbε-FITC (Cortex Biochem, San Leandro, Calif.) mAbs and HbA-FITC (Perkin Elmer) and analyzed by flow cytometry (FACScan, Coulter or FCASAria, BD Pharmingen).
Background: Flow cytometry measures light scatter and fluorescence of single cells or particles in a stream.

In a further data set the test system is STAT5. The data set can be described thus: Epo-induced STAT5 phosphorylation in UT-7 cells. It counts as cell-based, human. Conditions: 10 μM, 45 min pre-incubation, Epo 10 U/ml for 10 minutes. The text has this:
To further characterize the synergy of Epo and IMiDs™ on erythroid cells, we have performed signaling experiments in a UT-7 cell line, in particular, to determine the effect if IMiDs on the expression of STAT5, which is known to be activated upon the binding Epo to the erythropoietin receptor (EpoR). UT-7 is a human leukemia cell line absolutely dependent upon erythropoietin for proliferation, and was isolated from a patient with acute myeloid leukemia (AML M7). The level of EpoR expression in these cells is around 60%.
To study the role of IMiDs™ in Epo signaling, we stimulated UT-7 cells with Epo in the presence or absence of 4-(Amino)-2-(2,6-dioxo(3-piperidyl))-isoindoline- 1,3-dione as follows. UT-7 cells were expended in RPMI medium with 10% FBS and GM-CSF (5 ng/ml). The cells were serum and growth factor starved overnight, then pre-incubated for 45 minutes with 10 μM of 4-(Amino)-2-(2,6-dioxo(3-piperidyl))-isoindoline-1,3-dione or DMSO control, and stimulated with Epo (10 U/ml) for 10 minutes. 4-(Amino)-2-(2,6-dioxo(3-piperidyl))-isoindoline-1,3-dione increased Epo-induced STAT5 (Tyr694) phosphorylation by 2 fold (FIG. 12). This effect was detected within 10 minutes of stimulation with Epo.

Data set [3] is described as follows: Cardiovascular and respiratory function in anesthetized dogs. The format is in vivo, Beagle dogs. The protocol:
The effects of 3-(4-amino-1-oxo-1,3-dihydro-isoindol-2-yl)-piperidine-2,6-dione on cardiovascular and respiratory function are investigated in anesthetized dogs. Two groups of Beagle dogs (2/sex/group) are used. One group receives three doses of vehicle only and the other receives three ascending doses of 3-(4-amino-1-oxo-1,3-dihydro-isoindol-2-yl)-piperidine-2,6-dione (2, 10, and 20 mg/kg). In all cases, doses of 3-(4-amino-1-oxo-1,3-dihydro-isoindol-2-yl)-piperidine-2,6-dione or vehicle are successively administered via infusion through the jugular vein separated by intervals of at least 30 minutes.

For the compound `Nc1ncn([C@@H]2O[C@H](CO)[C@@H](O)[C@H]2O)c(=O)n1` [5-azacytidine, reference compound], the “toxicity to cultured CD34+ cells” value in the data set on CD34+ progenitor cells (10 μM) is “toxic”. Besides, in the data set on CD34+ progenitor cells (day 6 of differentiation), the fetal hemoglobin expression entry is “increased fetal hemoglobin expression”.

Regarding `NC(=O)NO` [Hydroxyurea, hydroxyurea, reference compound], in the data set with CD34+ progenitor cells (day 6 of differentiation), the fetal hemoglobin expression entry is recorded as “increased fetal hemoglobin expression”.

On to `Nc1cccc2c1C(=O)N(C1CCC(=O)NC1=O)C2=O` (stereo not shown) [4-(Amino)-2-(2,6-dioxo(3-piperidyl))-isoindoline-1,3-dione], for which, in the data set with BM-CD34+ cells [1] (SCF, Flt3-L, GM-CSF and TNFα), the “expression of genes encoding glycophorin B, rhesus blood group associated glycoprotein, Kell blood group precursor, EDRF/AHSP, erythroid Kruppel-like transcription factor” value was “upregulated” and the “gene expression profile of erythroid-specific genes” value is “upregulated”. For the same compound, in the data set on BM-CD34+ cells [1] (day 6 of CD34+ differentiation, vs DMSO), the “increase of embryonic hemoglobin ε gene expression” value stood at 18 fold. Also, in the data set with CD34+ progenitor cells (10 μM, day 6 of differentiation), the “induction of fetal hemoglobin production” value turned out to be 10 fold. Further, the “fetal hemoglobin expression in combination with hydroxyurea” value in the data set on CD34+ progenitor cells (combination with hydroxyurea, six days, SCF and Epo) is reported as “striking synergy”. For the same compound, in the data set on BM-CD34+ cells [2], the “expression of fetal hemoglobin” value is “increased in a dose-dependent manner” and the “expression of glycophorin A” value was “increased in a dose-dependent manner”. Moreover, in the data set with BM-CD34+ progenitors, the “adult hemoglobin (HbA) expression” value is given as “decrease” and the “induction of hemoglobin F in erythroid precursors” value is recorded as “potent inducers of hemoglobin F”. Also, in the data set on BM-CD34+ progenitors (0.001-10 μM, vs DMSO), the “cells expressing fetal hemoglobin” value was “increase”. In the data set with BM-CD34+ progenitors (FACS), the “expression of glycophorin A” value is reported as “slight decrease”. In the data set with STAT5, the “increase of Epo-induced STAT5 (Tyr694) phosphorylation” value came to 2 fold.

For `Nc1cccc2c1CN(C1CCC(=O)NC1=O)C2=O` (stereo not shown) [3-(4-amino-1-oxo-1,3-dihydroisoindol-2-yl)-piperidine-2,6-dione], in the data set on BM-CD34+ cells [2], the “expression of fetal hemoglobin” value is on record as “increased in a dose-dependent manner” and the “expression of glycophorin A” value was “increased in a dose-dependent manner”. The “cardiovascular and respiratory changes” value in data set [3] (2, 10 and 20 mg/kg by jugular vein infusion, vs vehicle) is listed as “minimal at all doses”. Moreover, the “deviations in femoral blood flow, respiratory parameters, and Qtc interval” value in data set [3] (common to control and treated groups) is listed as “not considered treatment-related”. Besides, the “duration of the arterial blood pressure increase” value in data set [3] (low dose, not seen at higher doses) is listed as “approximately 15 minutes”. This compound yielded an arterial blood pressure in data set [3] (low dose, small increase from 94 mmHg) of 101 mmHg. Besides, in the data set on BM-CD34+ progenitors, the “induction of hemoglobin F in erythroid precursors” value is given as “potent inducers of hemoglobin F”.
